Literature values as cited in patent publication EP0077028B1, “Renin inhibitory peptides” (Merck & Co., Inc., priority 1981, dated 1987).

Tested on: hog renin
Settings: after the injection of hog renin into nephrectomized rats

In the case of pepstatin, the “blood pressure in vivo” value is listed as “reduce blood pressure”.
